Read-outs that look alike come from different tables or passages of the source.
What was measured:
[1] = molecular target: T1, glucocorticoid receptor (GR) (Homo sapiens, UniProt P04150); assay: Assay for agonist activity on glucocorticoid receptor (luciferase reporter, HEK293 cells transfected with pBIND-GR plasmid); format: cell-based
T1 sequence (P04150 521-777): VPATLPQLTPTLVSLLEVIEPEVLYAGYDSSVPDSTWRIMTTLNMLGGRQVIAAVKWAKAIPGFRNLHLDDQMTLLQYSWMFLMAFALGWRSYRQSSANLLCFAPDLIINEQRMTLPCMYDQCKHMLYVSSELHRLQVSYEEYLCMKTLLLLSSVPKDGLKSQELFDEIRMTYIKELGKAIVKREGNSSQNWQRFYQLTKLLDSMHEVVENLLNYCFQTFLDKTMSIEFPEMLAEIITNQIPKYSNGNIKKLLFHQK
How it was run: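 HEK293 cells transfected with pBIND-GR, seeded in phenol red-free DMEM with 5% charcoal-stripped serum, then exposed to compounds in a 10-point, 4-fold dilution series from 10 µM, in duplicate. Luciferase luminescence read after incubation; EC50 from nonlinear fit. Vehicle blank: 0.1% DMSO.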

[2] = molecular target: T2, mineralocorticoid receptor (MR) (Homo sapiens, UniProt P08235); assay: Assay for agonist activity on mineralocorticoid receptor (luciferase reporter, HEK293 cells transfected with pBIND-MR plasmid); format: cell-based; settings: for target selectivity: MR/GR and PR/GR, same experimental conditions; for Target selectivity MR/GR: ratio of EC50 values
T2 sequence (P08235 726-984): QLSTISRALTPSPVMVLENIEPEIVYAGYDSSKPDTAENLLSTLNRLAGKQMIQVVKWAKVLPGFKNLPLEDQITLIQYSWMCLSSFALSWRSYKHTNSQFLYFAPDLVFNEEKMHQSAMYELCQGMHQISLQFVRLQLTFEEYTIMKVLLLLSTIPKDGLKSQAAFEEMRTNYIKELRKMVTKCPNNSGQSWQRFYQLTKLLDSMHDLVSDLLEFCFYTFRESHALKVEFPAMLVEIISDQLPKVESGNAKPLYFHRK
How it was run: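 HEK293 cells transiently transfected with pBIND-MR or pBIND-PR, seeded in phenol red-free DMEM with 5% charcoal-stripped serum. Compounds tested as 12-point 4-fold dilutions from 50 µM in duplicate, 0.1% DMSO blank. Luciferase luminescence read, EC50 by nonlinear fit.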

[3] = tested on: dry eye syndrome model New Zealand rabbits; assay: Dry eye syndrome experiment (benzalkonium chloride model): tear film break-up time; format: in vivo, male New Zealand White rabbits; settings: compared with the model group
Method: Positive control drug: Fluorometholone Eye Drops (specification: 5 mL/5 mg; Santen Pharmaceutical (CHINA) Co., Ltd.; Lot No.: 1FM6625) was used as the positive control drug and stored at room temperature protected from light until use.
Thirty male New Zealand White rabbits (conventional grade) were prepared. Six rabbits were randomly selected as the blank control group, and the remaining animals were administered 0.1% benzalkonium chloride to the left eye twice daily (morning and evening) , 10 µL/animal each time. On day 6 of modeling, tear secretion was measured using phenol red cotton threads to determine whether the model was successfully established. […] During the administration, all animals except the blank control group were administered 10 µL of 0.1% benzalkonium chloride to the left eye once daily to maintain dry eye symptoms..
• Test time: D3, D7, D15; • Test animals: All animals were tested before grouping; all enrolled surviving animals were tested after administration; • Test method: 1% Fluorescein sodium was dropped onto the inner side of the rabbit's lower eyelid, 10 µL/animal. The rabbit's eyes were closed and gently massaged to evenly distribute the fluorescein sodium on the eye surface. The rabbit's eyes were then sequentially placed under a slit lamp. The tear film break-up time was observed and recorded as the time from eye opening to the appearance of the first dark spot. If no dark spot appeared, the time was calculated as 60 seconds.
The normality and homogeneity of variance were tested by Levene's test. If there was no statistical significance (P > 0.05), one-way analysis of variance (ANOVA) was used for statistical analysis. If ANOVA was statistically significant (P ≤ 0.05), LSD test (parametric method) was used for comparative analysis. If the variance was heterogeneous (P ≤ 0.05), Kruskal-Wallis test was used. If the Kruskal-Wallis test was statistically significant (P ≤ 0.05), Dunnett's test (nonparametric method) was used for comparative analysis.

[4] = tested on: intraocular pressure of guinea pigs; assay: Adverse reactions of continuous ocular administration: intraocular pressure; format: in vivo
How it was run: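 Guinea pigs (300-350 g, both sexes) dosed bilaterally with 5 mg/5 mL ophthalmic suspensions, saline as blank; intraocular pressure measured before dosing and on days 7, 14, 21 and 28.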

[5] = GR agonist EC50 (nM), HEK293 cells transfected with pBIND-GR, luciferase signal
[6] = Nuclear receptor enzyme activity (nM) GR, EC50 of agonist activity, HEK293 reporter cells

Row | Structure (SMILES) | EC50 [1, 5] | target selectivity [2] | tear film break-up time [3] | intraocular pressure after continuous ocular administration [4] | EC50 ([1]; EC50 of agonist activity, HEK293 reporter cells, read-out: Nuclear receptor enzyme activity (nM) GR) | EC50 ([1]; HEK293 cells transfected with pBIND-GR, luciferase signal, read-out: GR agonist EC50) | EC50 ([2]; EC50 of agonist activity, HEK293 reporter cells, top concentration 50 µM, read-out: Nuclear receptor enzyme activity (nM) MR) | Target selectivity MR/GR [2] | Intraocular pressure of guinea pigs (mmHg) D0 ([4]; D0, before administration, 50 µL/eye (compounds and fluorometholone 1 mg/mL, loteprednol 5 mg/mL)) | Intraocular pressure of guinea pigs (mmHg) D7 ([4]; D7, 50 µL/eye (compounds and fluorometholone 1 mg/mL, loteprednol 5 mg/mL)) | Intraocular pressure of guinea pigs (mmHg) D14 ([4]; D14, 50 µL/eye (compounds and fluorometholone 1 mg/mL, loteprednol 5 mg/mL)) | Intraocular pressure of guinea pigs (mmHg) D21 ([4]; D21, 50 µL/eye (compounds and fluorometholone 1 mg/mL, loteprednol 5 mg/mL)) | Intraocular pressure of guinea pigs (mmHg) D28 ([4]; D28, 50 µL/eye (compounds and fluorometholone 1 mg/mL, loteprednol 5 mg/mL)) | EC50 [1, 6] | EC50 [2]
1 | C[C@]12C=CC(=O)C=C1CC[C@H]1[C@@H]3C[C@H]4OC(c5ccc(CSC6CCOC6=O)nc5)O[C@@]4(C(=O)CO)[C@@]3(C)C[C@H](O)[C@@]12Cl (stereo partly drawn) [Compound 48, (6aS,6bR,7S,8aS,8bS,11aR,12aS,12bS)-6b-Chloro-7-hydroxy-8b-(2-hydroxyacetyl)-6a,8a-dimethyl-10-(6-(((2-oxotetrahydrofuran-3-yl)thio)methyl)pyridin-3-yl)-1,2,6a,6b,7,8,8a,8b,11a,12,12a,12 b-dodecahydro-4H-naphtho[2',1':4,5]indeno[1,2-d][1,3]dioxol-4-one] | 0.37 nM | target selectivity comparable to that of compound 23 | significantly increased the tear film break-up time | no abnormal intraocular pressure observed |  |  |  |  |  |  |  |  |  |  | 
2 | C[C@]12C=CC(=O)C=C1CC[C@H]1[C@@H]3C[C@H]4OC(c5ccc(CSC6CCOC6=O)cc5)O[C@@]4(C(=O)CO)[C@@]3(C)C[C@H](O)[C@@]12F (stereo partly drawn) [Compound 17, (6aS,6bR,7S,8aS,8bS,11aR,12aS,12bS)-6b-Fluoro-7-hydroxy-8b-(2-hydroxyacetyl)-6a,8a-dimethyl-10-(4-(((2-oxotetrahydrofuran-3-yl)thio)methyl)phenyl)-1,2,6a,6b,7,8,8a,8b,11a,12,12a,12b-do decahydro-4H-naphtho[2',1':4,5]indeno[1,2-d][1,3]dioxol-4-one] |  |  | significantly increased the tear film break-up time | no abnormal intraocular pressure was observed | 0.3 nM | 0.3 nM | > 50000 nM | > 1.7×10^5 | 13.5 ± 0.6 mmHg | 16.0 ± 1.4 mmHg | 14.5 ± 1.9 mmHg | 13.3 ± 2.5 mmHg | 14.3 ± 1.5 mmHg |  | 
3 | C[C@]12C=CC(=O)C=C1CC[C@H]1[C@@H]3C[C@H]4OC(c5ccc(CNC6COC(=O)C6)cc5)O[C@@]4(C(=O)CO)[C@@]3(C)C[C@H](O)[C@@]12F (stereo partly drawn) [Compound 21, (6aS,6bR,7S,8aS,8bS,11aR,12aS,12bS)-6b-Fluoro-7-hydroxy-8b-(2-hydroxyacetyl)-6a,8a-dimethyl-10-(4-(((5-oxotetrahydrofuran-3-yl)amino)methyl)phenyl)-1,2,6a,6b,7,8,8a,8b,11a,12,12a,12b-dodecahydro-4H-naphtho[2',1':4,5]indeno[1,2-d][1,3]dioxol-4-one] | 0.63 nM | target selectivity comparable to that of compound 23 | significantly increased the tear film break-up time | no abnormal intraocular pressure observed |  |  |  |  |  |  |  |  |  |  | 
4 | C[C@]12C=CC(=O)C=C1[C@@H](F)C[C@H]1[C@@H]3C[C@H]4OC(c5ccc(CSC6CCOC6=O)cc5)O[C@@]4(C(=O)OCF)[C@@]3(C)C[C@H](O)[C@@]12F (stereo partly drawn) [Compound 36, Fluoromethyl (2S,6aS,6bR,7S,8aS,8bS,11aR,12aS,12bS)-2,6b-difluoro-7-hydroxy-6a,8a-dimethyl-4-oxo-10-(4-( ((2-oxotetrahydrofuran-3-yl)thio)methyl)phenyl)-1,2,4,6a,6b,7,8,8a,11a,12,12a,12b-dodecahydro-8bH-naphtho[2',1':4,5]indeno[1,2-d][1,3]dioxole-8b-carboxylate] | 0.12 nM |  | significantly increased the tear film break-up time | no abnormal intraocular pressure observed |  |  |  | > 4.2×10^5 |  |  |  |  |  | 0.12 nM | > 50000 nM
5 | C[C@]12C=CC(=O)C=C1[C@@H](F)C[C@H]1[C@@H]3C[C@H]4OC(c5ccc(CSC6CCOC6=O)cc5)O[C@@]4(C(=O)SCF)[C@@]3(C)C[C@H](O)[C@@]12F (stereo partly drawn) [Compound 34, S-(Fluoromethyl) (2S,6aS,6bR,7S,8aS,8bS,11aR,12aS,12bS)-2,6b-difluoro-7-hydroxy-6a,8a-dimethyl-4-oxo-10-(4-( ((2-oxotetrahydrofuran-3-yl)thio)methyl)phenyl)-1,2,4,6a,6b,7,8,8a,11a,12,12a,12b-dodecahydro-8bH-naphtho[2',1':4,5]indeno[1,2-d][1,3]dioxole-8b-carbothioate] | 0.1 nM |  | significantly increased the tear film break-up time | no abnormal intraocular pressure observed |  |  |  | > 5.0×10^5 |  |  |  |  |  | 0.1 nM | > 50000 nM
6 | C[C@]12C=CC(=O)C=C1CC[C@H]1[C@@H]3C[C@H]4OC(c5ccc(CSC6CCOC6=O)nc5)O[C@@]4(C(=O)CO)[C@@]3(C)C[C@H](O)[C@@]12F (stereo partly drawn) [Compound 47, (6aS,6bR,7S,8aS,8bS,11aR,12aS,12bS)-6b-Fluoro-7-hydroxy-8b-(2-hydroxyacetyl)-6a,8a-dimethyl-10-(6-(((2-oxotetrahydrofuran-3-yl)thio)methyl)pyridin-3-yl)-1,2,6a,6b,7,8,8a,8b,11a,12,12a,12 b-dodecahydro-4H-naphtho[2',1':4,5]indeno[1,2-d][1,3]dioxol-4-one] | 0.34 nM |  | significantly increased the tear film break-up time | no abnormal intraocular pressure observed |  |  |  | > 1.5×10^5 |  |  |  |  |  | 0.34 nM | > 50000 nM
7 | C[C@]12C=CC(=O)C=C1[C@@H](F)C[C@H]1[C@@H]3C[C@H]4OC(c5ccc(CSC6CCOC6=O)cc5)O[C@@]4(C(=O)SCC#N)[C@@]3(C)C[C@H](O)[C@@]12F (stereo partly drawn) [Compound 35, S-(Cyanomethyl) (2S,6aS,6bR,7S,8aS,8bS,11aR,12aS,12bS)-2,6b-difluoro-7-hydroxy-6a,8a-dimethyl-4-oxo-10-(4-( ((2-oxotetrahydrofuran-3-yl)thio)methyl)phenyl)-1,2,4,6a,6b,7,8,8a,11a,12,12a,12b-dodecahydro-8bH-naphtho[2',1':4,5]indeno[1,2-d][1,3]dioxole-8b-carbothioate] | 0.21 nM |  | significantly increased the tear film break-up time | no abnormal intraocular pressure observed |  |  |  | > 2.4×10^5 |  |  |  |  |  | 0.21 nM | > 50000 nM
